# According to ChEMBL document CHEMBL1275250, “In vitro activity of azithromycin against nontyphoidal Salmonella enterica” (2010):
# What was measured:
# [1] = Antibacterial activity against Salmonella enterica serovar blockley harboring G235A mutation in rlpD gene by agar dilution method; type: functional, Salmonella enterica subsp. enterica serovar Blockley
# [2] = Antibacterial activity against Salmonella enterica serovar montevideo harboring rlpD GC379T and rlpV G25A mutant gene by agar dilution method; type: functional, Salmonella enterica subsp. enterica serovar Montevideo
# [3] = Antibacterial activity against Salmonella enterica subsp. enterica serovar Saintpaul harboring G235A mutation in rlpD gene by agar dilution method; type: functional
# Salmonella typhimurium [4] = experiment: Antibacterial activity against Salmonella enterica serovar Typhimurium harboring G235A mutation in rlpD gene by agar dilution method; type: functional, Salmonella enterica subsp. enterica serovar Typhimurium
# Salmonella enterica = experiment: Antibacterial activity against quinolone-resistant Salmonella enterica; type: functional
# [5] = Antibacterial activity against quinolone-resistant Salmonella enterica serovar stanley s2280 by agar dilution method; type: functional, Salmonella enterica subsp. enterica serovar Stanley
# Salmonella typhimurium [6] = experiment: Antibacterial activity against quinolone-susceptible Salmonella enterica serovar Typhimurium s2391 by agar dilution method; type: functional, Salmonella enterica subsp. enterica serovar Typhimurium
# [7] = Antibacterial activity against quinolone-susceptible Salmonella enterica serovar poona s2181 by agar dilution method; type: functional, Salmonella enterica subsp. enterica serovar Poona
# Salmonella typhimurium [8] = experiment: Antibacterial activity against quinolone-susceptible Salmonella enterica serovar Typhimurium s2137 by agar dilution method; type: functional, Salmonella enterica subsp. enterica serovar Typhimurium
# [9] = Antibacterial activity against quinolone-susceptible Salmonella enterica serovar saintpaul s2829 by agar dilution method; type: functional, Salmonella enterica subsp. enterica serovar Saintpaul
# Salmonella typhimurium [10] = experiment: Antibacterial activity against quinolone-susceptible Salmonella enterica serovar Typhimurium s3082 by agar dilution method; type: functional, Salmonella enterica subsp. enterica serovar Typhimurium
# [11] = Antibacterial activity against quinolone-susceptible Salmonella enterica serovar newport s2099 by agar dilution method; type: functional, Salmonella enterica subsp. enterica serovar Newport
# [12] = Antibacterial activity against quinolone-resistant Salmonella enterica serovar stanley s2236 by agar dilution method; type: functional, Salmonella enterica subsp. enterica serovar Stanley
# [13] = Antibacterial activity against quinolone-susceptible Salmonella enterica serovar blockley s2439 by agar dilution method; type: functional, Salmonella enterica subsp. enterica serovar Blockley
# [14] = Antibacterial activity against quinolone-susceptible Salmonella enterica serovar blockley s2768 by agar dilution method; type: functional, Salmonella enterica subsp. enterica serovar Blockley
# [15] = Antibacterial activity against quinolone-susceptible Salmonella enterica serovar emek s2635 by agar dilution method; type: functional, Salmonella enterica subsp. enterica serovar Emek
# [16] = Antibacterial activity against quinolone-susceptible Salmonella enterica serovar rissen s2021 by agar dilution method; type: functional, Salmonella enterica subsp. enterica serovar Rissen
# [17] = Antibacterial activity against quinolone-susceptible Salmonella enterica serovar virchow s2195 by agar dilution method; type: functional, Salmonella enterica subsp. enterica serovar Virchow
# [18] = Antibacterial activity against quinolone-resistant Salmonella enterica serovar stanley s2085 by agar dilution method; type: functional, Salmonella enterica subsp. enterica serovar Stanley
# [19] = Antibacterial activity against quinolone-susceptible Salmonella enterica serovar blockley s2608 by agar dilution method; type: functional, Salmonella enterica subsp. enterica serovar Blockley
# Salmonella enteritidis = experiment: Antibacterial activity against quinolone-susceptible Salmonella enterica serovar enteritidis s3139 by agar dilution method; type: functional, Salmonella enterica subsp. enterica serovar Enteritidis
# Salmonella typhimurium [20] = experiment: Antibacterial activity against quinolone-susceptible Salmonella enterica serovar Typhimurium s2389 by agar dilution method; type: functional, Salmonella enterica subsp. enterica serovar Typhimurium
# [21] = Antibacterial activity against quinolone-resistant Salmonella enterica serovar stanley s2265 by agar dilution method; type: functional, Salmonella enterica subsp. enterica serovar Stanley
# [22] = Antibacterial activity against quinolone-susceptible Salmonella enterica serovar hvittingfoss s2948 by agar dilution method; type: functional, Salmonella enterica subsp. enterica serovar Hvittingfoss
# [23] = Antibacterial activity against quinolone-resistant Salmonella enterica serovar stanley s2018 by agar dilution method; type: functional, Salmonella enterica subsp. enterica serovar Stanley
# [24] = Antibacterial activity against quinolone-susceptible Salmonella enterica serovar bredeney s2477 by agar dilution method; type: functional, Salmonella enterica subsp. enterica serovar Bredeney
# [25] = Antibacterial activity against quinolone-susceptible Salmonella enterica serovar stanley s2868 by agar dilution method; type: functional, Salmonella enterica subsp. enterica serovar Stanley
# [26] = Antibacterial activity against quinolone-susceptible Salmonella enterica serovar rissen s3141 by agar dilution method; type: functional, Salmonella enterica subsp. enterica serovar Rissen
# [27] = Antibacterial activity against quinolone-resistant Salmonella enterica serovar stanley s2086 by agar dilution method; type: functional, Salmonella enterica subsp. enterica serovar Stanley
structure (smiles),measurement,setting,value
CC[C@H]1OC(=O)[C@H](C)[C@@H](O[C@H]2C[C@@](C)(OC)[C@@H](O)[C@H](C)O2)[C@H](C)[C@@H](O[C@@H]2O[C@H](C)C[C@H](N(C)C)[C@H]2O)[C@](C)(O)C[C@@H](C)C(=O)[C@H](C)[C@@H](O)[C@]1(C)O [ERYTHROMYCIN],MIC,[1],> 128 µg/mL
same,MIC,[2],> 64 µg/mL
same,MIC,[3],> 128 µg/mL
same,MIC,Salmonella typhimurium [4],> 64 µg/mL
CC[C@H]1OC(=O)[C@H](C)C(=O)[C@H](C)[C@@H](O[C@@H]2O[C@H](C)C[C@H](N(C)C)[C@H]2O)[C@](C)(OC)C[C@@H](C)C(=O)[C@H](C)[C@H]2N(CCCCn3cnc(-c4cccnc4)c3)C(=O)O[C@]12C [TELITHROMYCIN],MIC,[1],> 128 µg/mL
same,MIC,[2],4 µg/mL
same,MIC,[3],> 128 µg/mL
same,MIC,Salmonella typhimurium [4],> 128 µg/mL
O=C(O)c1cn(C2CC2)c2cc(N3CCNCC3)c(F)cc2c1=O [CIPROFLOXACIN],MIC,[1],0.25 µg/mL
same,MIC,[2],0.5 µg/mL
same,MIC,Salmonella enterica,≥ 0.125 µg/mL
same,MIC,[3],0.03 µg/mL
same,MIC,Salmonella typhimurium [4],0.06 µg/mL
CC[C@H]1OC(=O)[C@H](C)[C@@H](O[C@H]2C[C@@](C)(OC)[C@@H](O)[C@H](C)O2)[C@H](C)[C@@H](O[C@@H]2O[C@H](C)C[C@H](N(C)C)[C@H]2O)[C@](C)(O)C[C@@H](C)CN(C)[C@H](C)[C@@H](O)[C@]1(C)O [AZITHROMYCIN],MIC,[5],64 µg/mL
same,MIC,Salmonella typhimurium [6],128 µg/mL
same,MIC,[7],32 µg/mL
same,MIC,Salmonella typhimurium [8],128 µg/mL
same,MIC,[9],64 µg/mL
same,MIC,Salmonella typhimurium [10],128 µg/mL
same,MIC,[11],32 µg/mL
same,MIC,[12],32 µg/mL
same,MIC,[13],64 µg/mL
same,MIC,[14],128 µg/mL
same,MIC,[15],64 µg/mL
same,MIC,[16],> 128 µg/mL
same,MIC,[17],> 128 µg/mL
same,MIC,[18],64 µg/mL
same,MIC,[19],64 µg/mL
same,MIC,Salmonella enteritidis,128 µg/mL
same,MIC,Salmonella typhimurium [20],128 µg/mL
same,MIC,[1],64 µg/mL
same,MIC,[21],128 µg/mL
same,MIC,[22],128 µg/mL
same,MIC,[23],64 µg/mL
same,MIC,[2],4 µg/mL
same,MIC,[24],> 128 µg/mL
same,MIC,[25],128 µg/mL
same,MIC,Salmonella enterica,≥ 32 µg/mL
same,MIC,[26],64 µg/mL
same,MIC,[27],64 µg/mL
same,MIC,[3],64 µg/mL
same,MIC,Salmonella typhimurium [4],128 µg/mL
CCn1cc(C(=O)O)c(=O)c2ccc(C)nc21 [NALIDIXIC ACID],MIC,[1],> 512 µg/mL
same,MIC,[2],16 µg/mL
same,MIC,Salmonella enterica,≥ 32 µg/mL
same,MIC,[3],16 µg/mL
same,MIC,Salmonella typhimurium [4],16 µg/mL
